In paper PMC7912279, “Preclinical Evaluation of ^99mTc-Labeled GRPR Antagonists maSSS/SES-PEG2-RM26 for Imaging of Prostate Cancer” (Pharmaceutics, 2021):

Key:
[1] = Octanol-water distribution coefficient (logD); format: physicochemical; conditions: determined as previously described [35]
Description: To test the stability, the radiolabeled peptides were incubated with 300× molar excess of cysteine or with PBS at room temperature for 1 h. The octanol-water distribution coefficient (logD) was determined as previously described.

PC-3 xenografts = assay: Biodistribution in tumor bearing mice; format: in vivo; conditions: BALB/c nu/nu mice bearing PC-3 xenografts; for uptake, Blood / uptake, Bone / uptake, GI (gastrointestinal tract with content) / uptake, Intestine / uptake, Kidneys / uptake, Liver / uptake, Lung / uptake, Muscle / uptake, Pancreas / uptake, Spleen / uptake, Stomach / uptake, Tumor: 40 pmol (30 kBq), gamma counter, 4-7 mice; for Tumor-to-non-tumor ratio, Blood / Tumor-to-non-tumor ratio, Bone / Tumor-to-non-tumor ratio, Intestine / Tumor-to-non-tumor ratio, Kidneys / Tumor-to-non-tumor ratio, Liver / Tumor-to-non-tumor ratio, Lung / Tumor-to-non-tumor ratio, Muscle / Tumor-to-non-tumor ratio, Pancreas / Tumor-to-non-tumor ratio, Spleen / Tumor-to-non-tumor ratio, Stomach: 40 pmol
Description: Animals: All in vivo experiments were carried out on BALB/c nu/nu or NMRI mice provided by Scanbur A/S (Sollentuna, Sweden). All animal studies were approved by the Ethics Committee for Animal Research in Uppsala (Sweden), following the national legislation on the protection of laboratory animals (project identification code of approval 5/16, 26 February 2016). Prostate cancer xenografts expressing GRPR were established in BALB/c nu/nu mice by subcutaneous injection of PC-3 cell suspension in PBS (7 × 10^6 cells in 100 µL) four weeks before the experiment. Four to seven mice per data point were used in in vivo experiments, two mice per data point were used in metabolic analysis and SPECT/CT imaging experiments.
Biodistribution in tumor bearing mice: The comparison of biodistribution between the two radiolabeled peptides was evaluated in BALB/c nu/nu mice bearing PC-3 xenografts. Each mouse was injected with 40 pmol (30 kBq, mass of injected peptide was adjusted with unlabeled peptide) of either [^99mTc]Tc-maSSS-PEG2-RM26 or [^99mTc]Tc-maSES-PEG2-RM26. The mice were euthanized 3 h pi. Sample collection and activity measurements were done as described above. The biodistribution of [^99mTc]Tc-maSSS-PEG2-RM26 was further studied at 6 h pi following the same protocol. Additionally for [^99mTc]Tc-maSSS-PEG2-RM26, one group of xenograft bearing mice was injected with 40 pmol (30 kBq, mass of injected peptide was adjusted with unlabeled peptide) of labeled peptide with 5 nmol of unlabeled peptide and euthanized 3 h pi.

[2] = Metabolite analysis of urine and caecum content by radio-HPLC; format: in vivo; conditions: NMRI mice, 40 pmol, 3 h pi, two mice
Description: Metabolite Analysis: The NMRI mice were injected with 40 pmol of [^99mTc]Tc-maSSS-PEG2-RM26 (3 MBq) or [^99mTc]Tc-maSES-PEG2-RM26 (5.8 MBq). The mice were euthanized by CO2 inhalation 3 h pi, the content of the caecum and urine were collected and analyzed using HPLC as previously described. Centrifugation was performed using Centrifuge 5430 R (Eppendorf, Hamburg, Germany).

[3] = Biodistribution in NMRI mice for dosimetry estimation; format: in vivo; conditions: 40 pmol (30–500 kBq)
Description: Dosimetry estimation: To estimate the organs’ absorbed doses after iv injection of [^99mTc]Tc-maSSS-PEG2-RM26, NMRI mice were injected with 40 pmol (30–500 kBq) of the radiolabeled peptide and biodistribution was evaluated 0.5, 1, 3, 6, and 24 h pi. Sample collection and activity measurements were done as described above. To evaluate dosimetry in humans, uptake values in mice were upscaled using the well-established “percent kg/g method” [37] (Equation (1)):(%IA/organ)human = [(%IA/g)animal × (kg TBweight)animal × (g organ/(kg TBweight)human](1) where %IA-% injected activity.

CC(C)C[C@H](NC(=O)C[C@H](O)[C@H](CC(C)C)NC(=O)[C@H](Cc1c[nH]cn1)NC(=O)CNC(=O)[C@@H](NC(=O)[C@H](C)NC(=O)[C@H](Cc1c[nH]c2ccccc12)NC(=O)[C@H](CCC(N)=O)NC(=O)[C@@H](Cc1ccccc1)NC(=O)COCCOCCNC(=O)[C@H](CO)NC(=O)[C@H](CO)NC(=O)[C@H](CO)NC(=O)CS)C(C)C)C(N)=O [[^99mTc]Tc-maSSS-PEG2-RM26, metal not drawn]
logD [1]: -0.6
uptake, Blood (PC-3 xenografts; 3 h pi): 0.09 ± 0.04 % IA/g
uptake, Bone (PC-3 xenografts; 3 h pi): 0.04 ± 0.02 % IA/g
uptake, GI (gastrointestinal tract with content) (PC-3 xenografts; 3 h pi): 56 ± 3 % IA
uptake, Intestine (PC-3 xenografts; 3 h pi): 3 ± 1 % IA/g
uptake, Kidneys (PC-3 xenografts; 3 h pi): 0.7 ± 0.4 % IA/g
uptake, Liver (PC-3 xenografts; 3 h pi): 3 ± 1 % IA/g
uptake, Lung (PC-3 xenografts; 3 h pi): 0.12 ± 0.03 % IA/g
uptake, Muscle (PC-3 xenografts; 3 h pi): 0.04 ± 0.02 % IA/g
uptake, Pancreas (PC-3 xenografts; 3 h pi): 6.1 ± 0.8 % IA/g
uptake, Spleen (PC-3 xenografts; 3 h pi): 0.12 ± 0.04 % IA/g
uptake, Stomach (PC-3 xenografts; 3 h pi): 1.4 ± 0.3 % IA/g
uptake, Tumor (PC-3 xenografts; 3 h pi): 7 ± 2 % IA/g
uptake, Blood (PC-3 xenografts; 6 h pi): 0.056 ± 0.009 % IA/g
uptake, Bone (PC-3 xenografts; 6 h pi): 0.02 ± 0.02 % IA/g
uptake, GI (gastrointestinal tract with content) (PC-3 xenografts; 6 h pi): 26 ± 6 % IA
uptake, Intestine (PC-3 xenografts; 6 h pi): 0.4 ± 0.2 % IA/g
uptake, Kidneys (PC-3 xenografts; 6 h pi): 0.59 ± 0.06 % IA/g
uptake, Liver (PC-3 xenografts; 6 h pi): 0.68 ± 0.08 % IA/g
uptake, Lung (PC-3 xenografts; 6 h pi): 0.20 ± 0.10 % IA/g
uptake, Muscle (PC-3 xenografts; 6 h pi): 0.012 ± 0.004 % IA/g
uptake, Pancreas (PC-3 xenografts; 6 h pi): 0.98 ± 0.08 % IA/g
uptake, Spleen (PC-3 xenografts; 6 h pi): 0.06 ± 0.01 % IA/g
uptake, Stomach (PC-3 xenografts; 6 h pi): 0.9 ± 0.2 % IA/g
uptake, Tumor (PC-3 xenografts; 6 h pi): 3 ± 1 % IA/g
Tumor-to-non-tumor ratio, Blood (PC-3 xenografts; 3 h pi): 97 ± 56
Tumor-to-non-tumor ratio, Bone (PC-3 xenografts; 3 h pi): 177 ± 79
Tumor-to-non-tumor ratio, Intestine (PC-3 xenografts; 3 h pi): 3 ± 1
Tumor-to-non-tumor ratio, Kidneys (PC-3 xenografts; 3 h pi): 14 ± 9
Tumor-to-non-tumor ratio, Liver (PC-3 xenografts; 3 h pi): 3 ± 2
Tumor-to-non-tumor ratio, Lung (PC-3 xenografts; 3 h pi): 65 ± 20
Tumor-to-non-tumor ratio, Muscle (PC-3 xenografts; 3 h pi): 188 ± 32
Tumor-to-non-tumor ratio, Pancreas (PC-3 xenografts; 3 h pi): 1.2 ± 0.4
Tumor-to-non-tumor ratio, Spleen (PC-3 xenografts; 3 h pi): 62 ± 14
Tumor-to-non-tumor ratio, Stomach (PC-3 xenografts; 3 h pi): 5 ± 2
Tumor-to-non-tumor ratio, Blood (PC-3 xenografts; 6 h pi): 57 ± 22
Tumor-to-non-tumor ratio, Bone (PC-3 xenografts; 6 h pi): 287 ± 232
Tumor-to-non-tumor ratio, Intestine (PC-3 xenografts; 6 h pi): 9 ± 4
Tumor-to-non-tumor ratio, Kidneys (PC-3 xenografts; 6 h pi): 5 ± 2
Tumor-to-non-tumor ratio, Liver (PC-3 xenografts; 6 h pi): 5 ± 2
Tumor-to-non-tumor ratio, Lung (PC-3 xenografts; 6 h pi): 18 ± 8
Tumor-to-non-tumor ratio, Muscle (PC-3 xenografts; 6 h pi): 270 ± 67
Tumor-to-non-tumor ratio, Pancreas (PC-3 xenografts; 6 h pi): 3 ± 1
Tumor-to-non-tumor ratio, Spleen (PC-3 xenografts; 6 h pi): 50 ± 16
Tumor-to-non-tumor ratio, Stomach (PC-3 xenografts; 6 h pi): 3 ± 1
intact radiolabeled peptide in urine and gastrointestinal (caecum) content [2]: no intact radiolabeled peptide
uptake, Blood ([3]; 0.5 h pi): 0.7 ± 0.1 % IA/g
uptake, Body ([3]; 0.5 h pi): 4.5 ± 0.9 %IA/sample
uptake, Bone ([3]; 0.5 h pi): 0.26 ± 0.09 % IA/g
uptake, Brain ([3]; 0.5 h pi): 0.031 ± 0.008 % IA/g
uptake, Caecum ([3]; 0.5 h pi): 0.34 ± 0.09 %IA/sample
uptake, Heart ([3]; 0.5 h pi): 0.27 ± 0.10 % IA/g
uptake, Kidneys ([3]; 0.5 h pi): 2.5 ± 0.6 % IA/g
uptake, Liver ([3]; 0.5 h pi): 4 ± 1 % IA/g
uptake, Lung ([3]; 0.5 h pi): 0.7 ± 0.3 % IA/g
uptake, Muscle ([3]; 0.5 h pi): 0.13 ± 0.03 % IA/g
uptake, Pancreas ([3]; 0.5 h pi): 7 ± 2 % IA/g
uptake, Small intestine ([3]; 0.5 h pi): 10 ± 2 %IA/sample
uptake, Spleen ([3]; 0.5 h pi): 1.1 ± 0.4 % IA/g
uptake, Stomach ([3]; 0.5 h pi): 2.2 ± 0.2 %IA/sample
uptake, Upper large intestine ([3]; 0.5 h pi): 0.4 ± 0.3 %IA/sample
uptake, Body ([3]; 1 h pi): 6 ± 1 %IA/sample
uptake, Bone ([3]; 1 h pi): 0.2 ± 0.1 % IA/g
uptake, Brain ([3]; 1 h pi): 0.04 ± 0.02 % IA/g
uptake, Caecum ([3]; 1 h pi): 0.9 ± 0.2 %IA/sample
uptake, Heart ([3]; 1 h pi): 0.23 ± 0.03 % IA/g
uptake, Kidneys ([3]; 1 h pi): 4 ± 1 % IA/g
uptake, Large intestine ([3]; 1 h pi): 0.6 ± 0.1 %IA/sample
uptake, Liver ([3]; 1 h pi): 6 ± 1 % IA/g
uptake, Lung ([3]; 1 h pi): 0.9 ± 0.4 % IA/g
uptake, Pancreas ([3]; 1 h pi): 13 ± 6 % IA/g
uptake, Small intestine ([3]; 1 h pi): 44 ± 10 %IA/sample
uptake, Spleen ([3]; 1 h pi): 2.4 ± 1.6 % IA/g
uptake, Stomach ([3]; 1 h pi): 6 ± 2 %IA/sample
uptake, Blood ([3]; 3 h pi): 0.38 ± 0.06 % IA/g
uptake, Body ([3]; 3 h pi): 4 ± 2 %IA/sample
uptake, Bone ([3]; 3 h pi): 0.27 ± 0.04 % IA/g
uptake, Brain ([3]; 3 h pi): 0.03 ± 0.01 % IA/g
uptake, Caecum ([3]; 3 h pi): 16 ± 4 %IA/sample
uptake, Heart ([3]; 3 h pi): 0.12 ± 0.01 % IA/g
uptake, Kidneys ([3]; 3 h pi): 1.5 ± 0.3 % IA/g
uptake, Large intestine ([3]; 3 h pi): 3.3 ± 3.5 %IA/sample
uptake, Liver ([3]; 3 h pi): 2.5 ± 0.4 % IA/g
uptake, Lung ([3]; 3 h pi): 0.44 ± 0.07 % IA/g
uptake, Muscle ([3]; 3 h pi): 0.061 ± 0.006 % IA/g
uptake, Pancreas ([3]; 3 h pi): 3.2 ± 0.7 % IA/g
uptake, Small intestine ([3]; 3 h pi): 9 ± 3 %IA/sample
uptake, Spleen ([3]; 3 h pi): 2 ± 1 % IA/g
uptake, Stomach ([3]; 3 h pi): 5 ± 1 %IA/sample
uptake, Upper large intestine ([3]; 3 h pi): 5.2 ± 5.1 %IA/sample
uptake, Blood ([3]; 6 h pi): 0.30 ± 0.07 % IA/g
uptake, Body ([3]; 6 h pi): 2.8 ± 0.2 %IA/sample
uptake, Bone ([3]; 6 h pi): 0.18 ± 0.03 % IA/g
uptake, Brain ([3]; 6 h pi): 0.03 ± 0.01 % IA/g
uptake, Caecum ([3]; 6 h pi): 18 ± 3 %IA/sample
uptake, Heart ([3]; 6 h pi): 0.17 ± 0.08 % IA/g
uptake, Kidneys ([3]; 6 h pi): 1.3 ± 0.3 % IA/g
uptake, Large intestine ([3]; 6 h pi): 30 ± 13 %IA/sample
uptake, Liver ([3]; 6 h pi): 1.1 ± 0.3 % IA/g
uptake, Lung ([3]; 6 h pi): 0.3 ± 0.1 % IA/g
uptake, Muscle ([3]; 6 h pi): 0.05 ± 0.03 % IA/g
uptake, Small intestine ([3]; 6 h pi): 2.5 ±0.8 %IA/sample
uptake, Spleen ([3]; 6 h pi): 0.6 ± 0.5 % IA/g
uptake, Stomach ([3]; 6 h pi): 3.2 ±0.4 %IA/sample
uptake, Upper large intestine ([3]; 6 h pi): 14 ± 1 %IA/sample
uptake, Blood ([3]; 24 h pi): 0.030 ± 0.006 % IA/g
uptake, Body ([3]; 24 h pi): 0.27 ± 0.05 %IA/sample
uptake, Bone ([3]; 24 h pi): 0.04 ± 0.02 % IA/g
uptake, Brain ([3]; 24 h pi): 0.006 ± 0.004 % IA/g
uptake, Caecum ([3]; 24 h pi): 0.3 ± 0.2 %IA/sample
uptake, Heart ([3]; 24 h pi): 0.021 ± 0.003 % IA/g
uptake, Kidneys ([3]; 24 h pi): 0.46 ± 0.08 % IA/g
uptake, Large intestine ([3]; 24 h pi): 0.05 ± 0.03 %IA/sample
uptake, Liver ([3]; 24 h pi): 0.39 ± 0.05 % IA/g
uptake, Lung ([3]; 24 h pi): 0.09 ± 0.04 % IA/g
uptake, Muscle ([3]; 24 h pi): 0.006 ± 0.003 % IA/g
uptake, Pancreas ([3]; 24 h pi): 0.10 ± 0.02 % IA/g
uptake, Small intestine ([3]; 24 h pi): 0.10 ± 0.05 %IA/sample
uptake, Spleen ([3]; 24 h pi): 0.37 ± 0.09 % IA/g
uptake, Stomach ([3]; 24 h pi): 0.2 ± 0.1 %IA/sample
uptake, Upper large intestine ([3]; 24 h pi): 0.05 ± 0.01 %IA/sample
